{
  "source": "patent US10696651B2",
  "about": "“Heterocyclic compound” (Takeda Pharmaceutical Company Limited, priority 2016, dated 2020)",
  "key": {"[1]": {"target": "T1, human GCN2 full-length protein (Homo sapiens, UniProt Q9P2K8)", "T1 construct": "purchased Carna Biosciences, Inc", "T1 sequence (Q9P2K8 whole entry)": "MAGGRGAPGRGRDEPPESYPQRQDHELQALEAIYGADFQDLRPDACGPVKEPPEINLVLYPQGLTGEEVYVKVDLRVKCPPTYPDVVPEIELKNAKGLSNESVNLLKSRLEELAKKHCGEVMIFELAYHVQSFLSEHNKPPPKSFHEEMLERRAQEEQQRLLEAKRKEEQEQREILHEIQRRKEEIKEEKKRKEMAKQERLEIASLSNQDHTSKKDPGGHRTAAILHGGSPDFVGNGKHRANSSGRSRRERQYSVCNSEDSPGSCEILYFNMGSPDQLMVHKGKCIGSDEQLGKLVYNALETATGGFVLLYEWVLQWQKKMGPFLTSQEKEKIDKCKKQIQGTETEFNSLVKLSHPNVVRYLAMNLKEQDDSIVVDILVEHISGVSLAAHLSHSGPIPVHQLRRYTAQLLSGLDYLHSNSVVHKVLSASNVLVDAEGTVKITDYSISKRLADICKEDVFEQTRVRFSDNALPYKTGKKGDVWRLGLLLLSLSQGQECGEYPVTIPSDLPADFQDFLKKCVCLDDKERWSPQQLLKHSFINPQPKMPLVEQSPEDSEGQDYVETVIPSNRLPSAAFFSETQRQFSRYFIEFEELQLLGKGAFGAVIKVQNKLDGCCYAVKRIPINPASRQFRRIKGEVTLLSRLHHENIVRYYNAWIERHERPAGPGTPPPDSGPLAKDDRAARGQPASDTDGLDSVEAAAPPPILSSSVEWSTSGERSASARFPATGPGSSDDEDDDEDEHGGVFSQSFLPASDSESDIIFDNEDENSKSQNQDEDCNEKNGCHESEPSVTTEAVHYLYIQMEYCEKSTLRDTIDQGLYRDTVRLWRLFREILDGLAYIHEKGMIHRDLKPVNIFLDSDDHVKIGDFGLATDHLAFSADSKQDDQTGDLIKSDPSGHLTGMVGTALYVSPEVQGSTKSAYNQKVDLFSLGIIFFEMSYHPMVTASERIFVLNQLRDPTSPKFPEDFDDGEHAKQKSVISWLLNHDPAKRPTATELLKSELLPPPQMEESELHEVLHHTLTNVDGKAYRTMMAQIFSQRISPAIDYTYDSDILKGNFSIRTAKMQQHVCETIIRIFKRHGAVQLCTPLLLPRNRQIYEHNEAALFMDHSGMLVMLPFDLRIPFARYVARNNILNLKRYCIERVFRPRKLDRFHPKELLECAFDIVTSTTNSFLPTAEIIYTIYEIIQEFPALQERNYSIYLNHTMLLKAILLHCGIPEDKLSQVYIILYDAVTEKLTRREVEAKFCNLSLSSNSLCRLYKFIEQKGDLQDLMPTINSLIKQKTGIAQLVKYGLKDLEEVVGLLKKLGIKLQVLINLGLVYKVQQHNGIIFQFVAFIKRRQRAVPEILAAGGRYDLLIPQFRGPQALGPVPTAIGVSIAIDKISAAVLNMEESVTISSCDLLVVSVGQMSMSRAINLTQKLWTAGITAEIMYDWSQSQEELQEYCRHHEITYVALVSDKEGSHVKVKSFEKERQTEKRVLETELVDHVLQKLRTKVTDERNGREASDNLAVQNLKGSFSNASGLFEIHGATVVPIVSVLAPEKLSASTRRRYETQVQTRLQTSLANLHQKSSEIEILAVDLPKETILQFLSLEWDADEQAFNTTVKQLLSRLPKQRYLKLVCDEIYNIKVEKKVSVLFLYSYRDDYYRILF", "assay": "GCN2 enzyme inhibition assay (LanthaScreen TR-FRET)", "format": "biochemical", "conditions": "GCN2 enzyme inhibitory activity at compound concentration of 3 μM; Table 3-1; read-out: inhibitory rate", "outline": "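Full-length human GCN2 was preincubated with compound for 1 hr at room temperature, then reacted for 1 hr with substrate and ATP added from a 570 μM ATP / 390 nM substrate solution (stock concentrations). Phosphorylation was detected by TR-FRET with a terbium-labelled anti-eIF2alpha antibody after 1 hr, with enzyme-free wells as control.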"}, "[2]": {"tested_on": "osteosarcoma cell line U-2-OS", "assay": "In vitro cell proliferation inhibition assay (CellTiter-Glo, low amino acid media)", "format": "cell-based", "conditions": "Homo sapiens, U2OS, 72 h, cell proliferation inhibitory rate, McCoy's 5A low amino acid media, Table 4-1", "outline": "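Cells seeded at 1000 per well in McCoy's 5A low amino acid medium (25% amino acid content), then exposed to compound for 72 h at 37° C., 5% CO2. ATP measured by CellTiter-Glo luminescence. Inhibition (%) at 100 nM calculated relative to pre-treatment and untreated control wells.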"}, "[3]": {"tested_on": "human acute lymphoblastic leukemia cell line CCRF-CEM", "assay": "In vitro tumor proliferation inhibitory assay with combined use of asparaginase", "format": "cell-based", "conditions": "compound concentration 100 nM, L-asparaginase 0.1 U/mL, 72 hr, read-out: in vitro cell proliferation inhibitory rate (%)", "experimental": "A cell suspension (40 μL) (5000 cells/well) of human acute lymphoblastic leukemia cell line CCRF-CEM obtained from ATCC (American Type Culture Collection) was seeded on a 384 well plate using RPMI1640 medium. The seeded cells were incubated (37° C., 5% CO2) overnight to 24 hr at the longest. L-asparaginase (Sigma-Aldrich Co. LLC.) was dissolved in PBS and treated in each well to a final concentration of 0.1 U/mL. Furthermore, each test compound was dissolved (10 mM) in DMSO, delivered to wells by using TECAN HP D300 (TECAN), and the plate was incubated for 72 hr (37° C., 5% CO2). A well without addition of compound was treated similarly as a control group. […] After incubation for 10 min, cell proliferation inhibitory rate was measured by the amount of ATP which is a cell viability marker.\nLuminescence of cells showing ATP amount was measured using ARVO MX (PerkinElmer). Based on the luminescence value of the control group without addition of test compound solution and the treatment group with addition of test compound, the cell proliferation inhibitory rate (%) of the test compound at a compound concentration of 100 nM was calculated by the following formula and the results thereof are shown in Table 7. Inhibitory rate (%)=(1−(luminescence value of treatment group)÷(luminescence value of control group))×100"}},
  "data": [
    {"smiles": "Nc1ncc(C#Cc2c(F)ccc(NS(=O)(=O)c3cc(Cl)cc(CO)c3Cl)c2F)cn1", "note": "[Example 4, N-(3-((2-aminopyrimidin-5-yl)ethynyl)-2,4-difluorophenyl)-2,5-dichloro-3-(hydroxymethyl)benzenesulfonamide]", "values": [
      {"measurement": "inhibition at 3 µM", "setting": "[1]", "value": 100, "unit": "%"},
      {"measurement": "inhibition at 0.1 µM", "setting": "[2]", "value": 90, "unit": "%"},
      {"measurement": "inhibition at 0.1 µM", "setting": "[3]", "value": 89, "unit": "%"}
    ]},
    {"smiles": "COc1ncc(Cl)cc1S(=O)(=O)Nc1ccc(F)c(C#Cc2cnc(N)nc2)c1F", "note": "[Example 7, N-(3-((2-aminopyrimidin-5-yl)ethynyl)-2,4-difluorophenyl)-5-chloro-2-methoxypyridine-3-sulfonamide]", "values": [
      {"measurement": "inhibition at 3 µM", "setting": "[1]", "value": 100, "unit": "%"},
      {"measurement": "inhibition at 0.1 µM", "setting": "[2]", "value": 96, "unit": "%"},
      {"measurement": "inhibition at 0.1 µM", "setting": "[3]", "value": 90, "unit": "%"}
    ]}
  ]
}
